Experimental data from PubChem BioAssay (NCI).
“And” between values parts separate entries of the source, which are not always exact repeats. Equal entries are not always repeated.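 Each compound was tested at five concentrations against cells in 96-well plates for 48 hours. GI50 = concentration required for 50% inhibition of growth. TGI marks complete inhibition of growth.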

Tests used:
Assay in all cases: NCI tumour cell line growth inhibition, 48 h
OVCAR-4 ovarian = test system: OVCAR-4 ovarian
SK-MEL-5 melanoma = test system: SK-MEL-5 melanoma
EKVX NSCLC = test system: EKVX NSCLC
DLD-1 colon = test system: DLD-1 colon
UACC-62 melanoma = test system: UACC-62 melanoma
UACC-257 melanoma = test system: UACC-257 melanoma
HOP-92 NSCLC = test system: HOP-92 NSCLC
786-0 renal = test system: 786-0 renal
KM12 colon = test system: KM12 colon
SK-MEL-2 melanoma = test system: SK-MEL-2 melanoma
RXF 393 renal = test system: RXF 393 renal
SF-268 CNS = test system: SF-268 CNS
SK-OV-3 ovarian = test system: SK-OV-3 ovarian
XF 498 CNS = test system: XF 498 CNS
NCI-H226 lung = test system: NCI-H226 lung
ACHN renal = test system: ACHN renal
NCI-H23 lung = test system: NCI-H23 lung
M14 melanoma = test system: M14 melanoma
K-562 leukemia = test system: K-562 leukemia
SN12C renal = test system: SN12C renal
MOLT-4 leukemia = test system: MOLT-4 leukemia
A549 NSCLC = test system: A549 NSCLC
DMS 273 small cell lung = test system: DMS 273 small cell lung
SNB-19 CNS = test system: SNB-19 CNS
COLO 205 colon = test system: COLO 205 colon
DMS 114 small cell lung = test system: DMS 114 small cell lung
MALME-3M melanoma = test system: MALME-3M melanoma
RXF-631 renal = test system: RXF-631 renal
UO-31 renal = test system: UO-31 renal
HL-60(TB) leukemia = test system: HL-60(TB) leukemia
OVCAR-5 ovarian = test system: OVCAR-5 ovarian
HOP-62 NSCLC = test system: HOP-62 NSCLC
HCC-2998 colon = test system: HCC-2998 colon
HT29 colon = test system: HT29 colon
CCRF-CEM leukemia = test system: CCRF-CEM leukemia
SF-295 CNS = test system: SF-295 CNS
OVCAR-8 ovarian = test system: OVCAR-8 ovarian
SW-620 colon = test system: SW-620 colon
SNB-75 CNS = test system: SNB-75 CNS
SR leukemia = test system: SR leukemia
HCT-116 colon = test system: HCT-116 colon
SK-MEL-28 melanoma = test system: SK-MEL-28 melanoma
OVCAR-3 ovarian = test system: OVCAR-3 ovarian
KM20L2 colon = test system: KM20L2 colon
SF-539 CNS = test system: SF-539 CNS
TK-10 renal = test system: TK-10 renal
IGROV1 ovarian = test system: IGROV1 ovarian
NCI-H460 lung = test system: NCI-H460 lung
LOX IMVI melanoma = test system: LOX IMVI melanoma
NCI-H522 lung = test system: NCI-H522 lung
HOP-18 NSCLC = test system: HOP-18 NSCLC
LXFL 529 NSCLC = test system: LXFL 529 NSCLC
SNB-78 CNS = test system: SNB-78 CNS
RPMI-8226 leukemia = test system: RPMI-8226 leukemia
U251 CNS = test system: U251 CNS
CAKI-1 renal = test system: CAKI-1 renal

Structure (SMILES): CC1OC(OC23C(=O)CC(C)(O)CC2(O)C=CC2=C3C(=O)c3ccc(C4CC(OC5CCC(OC6CC(O)C(O)C(C)O6)C(C)O5)C(O)C(C)O4)c(O)c3C2=O)CCC1O (stereo not given)
- TGI (OVCAR-4 ovarian): 33.6 µM and 30 µM
- TGI (SK-MEL-5 melanoma): 33.3 µM and 29.7 µM
- TGI (EKVX NSCLC): 32.7 µM and 31.7 µM
- TGI (DLD-1 colon): 26.8 µM and 23.8 µM
- TGI (UACC-62 melanoma): 30 µM and 27.1 µM
- TGI (UACC-257 melanoma): 31.9 µM and 28.8 µM
- GI50 (HOP-92 NSCLC): 15.2 µM and 4.81 µM
- TGI (HOP-92 NSCLC): 28.7 µM and 14.8 µM
- TGI (786-0 renal): 31.7 µM and 29.5 µM
- TGI (KM12 colon): 31.2 µM and 27.5 µM
- TGI (SK-MEL-2 melanoma): 31.2 µM and 30.5 µM
- GI50 (RXF 393 renal): 13.8 µM and 5.87 µM
- TGI (RXF 393 renal): 26.9 µM and 19.2 µM
- TGI (SF-268 CNS): 31.4 µM and 31.2 µM
- TGI (SK-OV-3 ovarian): 86.2 µM and 46 µM
- TGI (XF 498 CNS): 32.9 µM and 32.1 µM
- TGI (NCI-H226 lung): 38.5 µM and 35.5 µM
- TGI (ACHN renal): 31.4 µM and 30.8 µM
- TGI (NCI-H23 lung): 33.1 µM and 30.7 µM
- TGI (M14 melanoma): 32.3 µM and 26.7 µM
- TGI (K-562 leukemia): > 100 µM
- TGI (SN12C renal): 32.5 µM and 30.1 µM
- TGI (MOLT-4 leukemia): > 100 µM
- TGI (A549 NSCLC): 82.1 µM and 65.2 µM
- GI50 (DMS 273 small cell lung): 20.5 µM and 3.18 µM
- TGI (DMS 273 small cell lung): 36.3 µM and 10 µM
- GI50 (SNB-19 CNS): 50.8 µM and 22.8 µM
- TGI (SNB-19 CNS): > 100 µM and 51.7 µM
- TGI (COLO 205 colon): 11.8 µM and 8.15 µM
- GI50 (DMS 114 small cell lung): 16.5 µM and 8.11 µM
- TGI (DMS 114 small cell lung): 31 µM and 21.2 µM
- TGI (MALME-3M melanoma): 8.48 µM and 3.49 µM
- TGI (RXF-631 renal): 35.6 µM and 26.5 µM
- TGI (UO-31 renal): 32.2 µM and 32.4 µM
- TGI (HL-60(TB) leukemia): > 100 µM
- TGI (OVCAR-5 ovarian): 33.1 µM and 34.9 µM
- TGI (HOP-62 NSCLC): 79.4 µM and 41.4 µM
- TGI (HCC-2998 colon): 31.1 µM and 27.3 µM
- TGI (HT29 colon): 36.1 µM and 27.8 µM
- TGI (CCRF-CEM leukemia): > 100 µM
- GI50 (SF-295 CNS): 16.5 µM and 3.06 µM
- TGI (SF-295 CNS): 30.4 µM and 9.87 µM
- GI50 (OVCAR-8 ovarian): 16.5 µM and 5.32 µM
- TGI (OVCAR-8 ovarian): 30.1 µM and 17.6 µM
- TGI (SW-620 colon): 15.7 µM and 10.9 µM
- TGI (SNB-75 CNS): 32.5 µM and 29.9 µM
- TGI (SR leukemia): > 100 µM
- GI50 (HCT-116 colon): 15.1 µM and 5.78 µM
- TGI (HCT-116 colon): 28.5 µM and 18.6 µM
- TGI (SK-MEL-28 melanoma): 29 µM and 27.3 µM
- GI50 (OVCAR-3 ovarian): 15.9 µM and 2.86 µM
- TGI (OVCAR-3 ovarian): 29.8 µM and 9.07 µM
- TGI (KM20L2 colon): 36.3 µM and 34.5 µM
- TGI (SF-539 CNS): 31.8 µM and 31.4 µM
- TGI (TK-10 renal): 36.5 µM and 31.6 µM
- TGI (IGROV1 ovarian): 30.6 µM and 30.1 µM
- TGI (NCI-H460 lung): 38 µM and 34.3 µM
- GI50 (LOX IMVI melanoma): 13.1 µM and 6.26 µM
- TGI (LOX IMVI melanoma): 27.5 µM and 19.7 µM
- TGI (NCI-H522 lung): 3.83 µM and 3.5 µM
- TGI (HOP-18 NSCLC): 31.3 µM and 30.8 µM
- TGI (LXFL 529 NSCLC): 28.8 µM and 23.9 µM
- TGI (SNB-78 CNS): 35.2 µM and 34.4 µM
- TGI (RPMI-8226 leukemia): > 100 µM
- TGI (U251 CNS): 29.5 µM and 30.8 µM
- TGI (CAKI-1 renal): 33.5 µM and 34.5 µM

Structure (SMILES): O=S(Cc1cnc2ccccc2c1)c1nc2ccccc2nc1-c1cccs1 (stereo not given)
- TGI (OVCAR-4 ovarian): 24.6 µM
- TGI (EKVX NSCLC): 25 µM
- TGI (UACC-257 melanoma): 31.2 µM
- TGI (HOP-92 NSCLC): 25 µM
- TGI (786-0 renal): 27.3 µM
- TGI (SF-268 CNS): 39.6 µM
- TGI (SK-OV-3 ovarian): 73 µM
- TGI (XF 498 CNS): 16.9 µM
- TGI (NCI-H226 lung): 11.6 µM
- TGI (ACHN renal): 26.4 µM
- TGI (NCI-H23 lung): 35.7 µM
- TGI (M14 melanoma): 32.2 µM
- TGI (K-562 leukemia): > 100 µM
- TGI (SN12C renal): 32.8 µM
- TGI (MOLT-4 leukemia): > 100 µM
- TGI (A549 NSCLC): 48.6 µM
- TGI (DMS 273 small cell lung): 34.9 µM
- TGI (SNB-19 CNS): 43.6 µM
- TGI (COLO 205 colon): 42 µM
- TGI (DMS 114 small cell lung): 25.8 µM
- TGI (MALME-3M melanoma): 37.7 µM
- TGI (UO-31 renal): 28.3 µM
- TGI (HL-60(TB) leukemia): 72.8 µM
- TGI (OVCAR-5 ovarian): 28.5 µM
- TGI (HT29 colon): 37.1 µM
- TGI (CCRF-CEM leukemia): > 100 µM
- TGI (SF-295 CNS): 61 µM
- TGI (OVCAR-8 ovarian): 51.7 µM
- TGI (SNB-75 CNS): 39.3 µM
- TGI (HCT-116 colon): 22.4 µM
- TGI (SK-MEL-28 melanoma): 34.9 µM
- TGI (OVCAR-3 ovarian): 34.7 µM
- TGI (SF-539 CNS): 32.8 µM
- TGI (IGROV1 ovarian): 33.4 µM
- TGI (HOP-18 NSCLC): 31.7 µM
- TGI (LXFL 529 NSCLC): 20.8 µM
- TGI (SNB-78 CNS): 50.7 µM
- TGI (RPMI-8226 leukemia): > 100 µM
- TGI (U251 CNS): 33.5 µM
